Consider 28 molecules from patent publication US11667649B2, “Heteroaromatic macrocyclic ether chemotherapeutic agents” (Nuvalent, Inc., priority 2020, dated 2023).

Some results are limits rather than exact numbers.

The target in assay [1] is T1, ROS1-wt kinase domain (Homo sapiens, UniProt P08922).
T1 construct: TRKA-wt (1 nM, BPS Bio, 40280) kinase domains in buffer; purchased Carna 08-163
Description: Biochemical kinase assay, ROS1-wt. The conditions noted are these: 2 mM ATP substrate solution, read-out: Ki^app ROS1-wt. Here is the method: (§1) First, 250 nL of compound dissolved in DMSO (100-fold of the desired concentration) was dispensed into a 384-well plate. A 12.5 μL substrate solution containing ATP (2 mM) and fluorogenic phosphorylation substrate AQT0101 (26 μM for ALK and ROS1, AssayQuant) or AQT0104 (26 μM for TRKA, AssayQuant) in buffer (50 mM HEPES pH 7.5, 0.01% Brij-35, 0.5 mM EGTA, 10 mM MgCl2) was added and mixed thoroughly. Then, a 12.5 μL kinase solution containing ALK-wt (1.5 nM, Carna, 08-518), ALK ALK L1196M/G1202R (3 nM, SignalChem, A19-12NG), ROS1-wt (0.6 nM, Carna, 08-163), ROS1-G2032R (0.5 nM, SignalChem, R14-12BG), or TRKA-wt (1 nM, BPS Bio, 40280) kinase domains in buffer ([…] HEPES pH 7.5, 0.01% Brij-35, 2% glycerol, 0.4 mg/mL BSA, 0.5 mM EGTA, and 10 mM MgCl2) was added and mixed thoroughly. The plate was sealed and read by SpectraMax Paradigm at λ=485 nm every 2 minutes for 120 minutes at 30° C. Initial rates of reaction (v) were calculated from the change in fluorescence intensity over time during the initial, linear portion of the reaction. Finally, apparent inhibitory constants (Ki^app) were determined from regression of v and I (inhibitor concentration) to Morrison Equation (E=enzyme concentration): […]

Assay [2] concerns the target T2, ALK-wt kinase domain (Homo sapiens, UniProt Q9UM73).
T2 construct: TRKA-wt (1 nM, BPS Bio, 40280) kinase domains in buffer; purchased Carna 08-518
Put plainly: Biochemical kinase assay, ALK-wt. The conditions noted are these: 2 mM ATP substrate solution, read-out: Ki^app ALK-wt. Here is the method: as §1

Assay [3] concerns the target T3, ALK L1196M/G1202R kinase domain (Homo sapiens, UniProt Q9UM73, G1202R/L1196M).
T3 construct: TRKA-wt (1 nM, BPS Bio, 40280) kinase domains in buffer; purchased SignalChem A19-12NG
Put plainly: Biochemical kinase assay, ALK L1196M/G1202R. The following applies: 2 mM ATP substrate solution, read-out: Ki^app ALK-L1196M-G1202R. Here is the method:
as §1

The target of assay [4] is T4, ROS1-G2032R kinase domain (Homo sapiens, UniProt P08922, G2032R).
T4 construct: TRKA-wt (1 nM, BPS Bio, 40280) kinase domains in buffer; purchased SignalChem R14-12BG
Put plainly: Biochemical kinase assay, ROS1-G2032R. The conditions noted are these: 2 mM ATP substrate solution, read-out: Ki^app ROS1-G2032R. Here is the method:
as §1

The target of assay [5] is T5, TRKA-wt kinase domain (Homo sapiens, UniProt P04629).
T5 construct: TRKA-wt (1 nM, BPS Bio, 40280) kinase domains in buffer; purchased BPS Bio 40280
Put plainly: Biochemical kinase assay, TRKA-wt. The conditions noted are these: 2 mM ATP substrate solution, read-out: Ki^app TRKA-wt. As to the method: as §1

`CCn1ncc2c1-c1cnc(N)c(c1)OCc1cc(F)ccc1-n1nccc1C2` [Compound 41]: the Ki in assay [1] is under 0.05 µM; in assay [2], under 0.05 µM; in assay [3], under 0.05 µM; in assay [4] it was under 0.05 µM; in assay [5], over 0.5 µM.

On to `CCn1ncc2c1-c1cnc(N)c(c1)OC(C)c1cc(F)ccc1-c1ncncc1C2` (centres unmarked) [Compound 42], for which the Ki in assay [1] is under 0.05 µM; in assay [2] it was under 0.05 µM; in assay [3], under 0.05 µM; in assay [4], under 0.05 µM; in assay [5], 0.05 to 0.5 µM.

Consider `CC1Oc2cc(cnc2N)-c2c(cnn2C(F)F)Cn2ccnc2-c2ccc(F)cc21` (centres unmarked) [Compound 44], for which the Ki in assay [1] was under 0.05 µM; in assay [2] it was under 0.05 µM; in assay [3], 0.05 to 0.5 µM; in assay [4], under 0.05 µM; in assay [5], 0.05 to 0.5 µM.

Regarding `CCn1ncc2c1-c1cnc(N)c(c1)O[C@H](C)c1cc(F)ccc1-c1nc(C)cn1C2` [Compound 45], the Ki in assay [1], in assay [2], in assay [3], in assay [4] and in assay [5] was under 0.05 µM throughout.

On to `CCn1ncc2c1-c1cnc(N)c(c1)O[C@H](C)c1cc(F)ccc1-n1ncc(C#N)c1C2` [Compound 47], for which the Ki in assay [1] is under 0.05 µM; in assay [2], under 0.05 µM; in assay [3] it was 0.05 to 0.5 µM; in assay [4], under 0.05 µM; in assay [5], 0.05 to 0.5 µM.

`CCn1ncc2c1-c1cnc(N)c(c1)OCc1cc(F)ccc1-n1ncc(F)c1C2` [Compound 48]: the Ki in assay [1] was under 0.05 µM; in assay [2] it was under 0.05 µM; in assay [3] it was under 0.05 µM; in assay [4], under 0.05 µM; in assay [5], over 0.5 µM.

On to `CCn1ncc2c1-c1cnc(N)c(c1)OCc1cc(F)ccc1-c1nn(C)cc1C2` [Compound 49], for which the Ki in assay [1] is under 0.05 µM; in assay [2], under 0.05 µM; in assay [3], 0.05 to 0.5 µM; in assay [4] it was 0.05 to 0.5 µM; in assay [5] it was over 0.5 µM.

As for `CCc1ncn2c1-c1cnc(N)c(c1)O[C@H](C)c1cc(F)ccc1-c1nn(C)cc1C2` [Compound 50], the Ki in assay [1], in assay [2], in assay [3], in assay [4] and in assay [5] was under 0.05 µM in each case.

Take `CCn1ncc2c1-c1cnc(N)c(c1)O[C@H](C)c1cc(F)ccc1-n1nc(C(F)(F)F)cc1C2` [Compound 52]: the Ki in assay [1] was under 0.05 µM; in assay [2] it was under 0.05 µM; in assay [3], under 0.05 µM; in assay [4], under 0.05 µM; in assay [5], 0.05 to 0.5 µM.

In the case of `Cc1nn(CC2CC2)c2c1Cc1cn(C)nc1-c1ccc(F)cc1[C@@H](C)Oc1cc-2cnc1N` [Compound 53], the Ki is under 0.05 µM in assay [1]; under 0.05 µM in assay [2]; under 0.05 µM in assay [3]; under 0.05 µM in assay [4]; 0.05 to 0.5 µM in assay [5].

Turning to `Cc1nn(CC2CC2)c2c1Cc1c(nn(C)c1Cl)-c1ccc(F)cc1[C@@H](C)Oc1cc-2cnc1N` [Compound 54], the Ki was under 0.05 µM in assay [1]; under 0.05 µM in assay [2]; under 0.05 µM in assay [3]; under 0.05 µM in assay [4]; over 0.5 µM in assay [5].

On to `CCc1nn(C)c2c1-c1cnc(N)c(c1)OCc1cc(F)ccc1-n1nc(C)cc1C2` [Compound 55], for which the Ki is under 0.05 µM in assay [1]; under 0.05 µM in assay [2]; under 0.05 µM in assay [3]; under 0.05 µM in assay [4]; 0.05 to 0.5 µM in assay [5].

For `C[C@H]1Oc2cc(cnc2N)-c2c(C#N)ncn2Cc2ccnn2-c2ccc(F)cc21` [Compound 58], the Ki in assay [1] was under 0.05 µM; in assay [2] it was under 0.05 µM; in assay [3], under 0.05 µM; in assay [4], under 0.05 µM; in assay [5], over 0.5 µM.

`CC1Oc2cc(cnc2N)-c2c(nn(C)c2C#N)Cc2cnccc2-c2ccc(F)cc21` (centres unmarked) [Compound 59]: the Ki was under 0.05 µM in assay [1]; under 0.05 µM in assay [2]; over 0.5 µM in assay [3]; 0.05 to 0.5 µM in assay [4]; 0.05 to 0.5 µM in assay [5].

As for `CC1Oc2cc(cnc2N)-c2c(C#N)cnn2Cc2cnn(C)c2-c2ccc(F)cc21` (centres unmarked) [Compound 60], the Ki in assay [1] was under 0.05 µM; in assay [2], under 0.05 µM; in assay [3], 0.05 to 0.5 µM; in assay [4] it was 0.05 to 0.5 µM; in assay [5] it was over 0.5 µM.

Regarding `Cc1cc2n(n1)-c1ccc(F)cc1[C@@H](C)Oc1cc(cnc1N)-c1c(C#N)ncn1C2` [Compound 61], the Ki in assay [1] is 0.05 to 0.5 µM; in assay [2] it was 0.05 to 0.5 µM; in assay [3] it was over 0.5 µM; in assay [4] it was over 0.5 µM; in assay [5] it was over 0.5 µM.

Turning to `C[C@H]1Oc2cc(cnc2N)-c2c(C#N)cnn2Cc2ccnn2-c2ccc(F)cc21` [Compound 62], the Ki is under 0.05 µM in assay [1]; under 0.05 µM in assay [2]; under 0.05 µM in assay [3]; 0.05 to 0.5 µM in assay [4]; over 0.5 µM in assay [5].

Regarding `C[C@H]1Oc2cc(cnc2N)-c2c(C#N)ncn2Cc2cc(F)cnc2-c2ccc(F)cc21` [Compound 63], the Ki is under 0.05 µM in assay [1]; under 0.05 µM in assay [2]; under 0.05 µM in assay [3]; under 0.05 µM in assay [4]; over 0.5 µM in assay [5].

Regarding `C[C@H]1Oc2cc(cnc2N)-c2c(C#N)ncn2Cc2scnc2-c2ccc(F)cc21` [Compound 64], the Ki in assay [1] was under 0.05 µM; in assay [2], under 0.05 µM; in assay [3], under 0.05 µM; in assay [4], under 0.05 µM; in assay [5], over 0.5 µM.

Consider `Cc1nc2c(s1)Cn1cnc(C#N)c1-c1cnc(N)c(c1)O[C@H](C)c1cc(F)ccc1-2` [Compound 65], for which the Ki in assay [1] was under 0.05 µM; in assay [2], under 0.05 µM; in assay [3] it was under 0.05 µM; in assay [4], under 0.05 µM; in assay [5], over 0.5 µM.

`Cc1nc2c(s1)Cn1ncc(C#N)c1-c1cnc(N)c(c1)O[C@H](C)c1cc(F)ccc1-2` [Compound 67]: the Ki in assay [1] was under 0.05 µM; in assay [2] it was under 0.05 µM; in assay [3], under 0.05 µM; in assay [4] it was under 0.05 µM; in assay [5], 0.05 to 0.5 µM.

As to `Cc1nc2c(s1)Cn1ncc(C(F)F)c1-c1cnc(N)c(c1)O[C@H](C)c1cc(F)ccc1-2` [Compound 68], the Ki in assay [1] was under 0.05 µM; in assay [2] it was under 0.05 µM; in assay [3], under 0.05 µM; in assay [4] it was under 0.05 µM; in assay [5] it was 0.05 to 0.5 µM.

With `CCn1ncc2c1-c1cnc(N)c(c1)OCc1cc(F)ccc1-n1nc(C)cc1C2` [Compound 69], the Ki in assay [1] was under 0.05 µM; in assay [2], under 0.05 µM; in assay [3], under 0.05 µM; in assay [4], under 0.05 µM; in assay [5], 0.05 to 0.5 µM.

For `CCn1nnc2c1-c1cnc(N)c(c1)O[C@H](C)c1cc(F)ccc1-c1ncc(F)cc1C2` [Compound 70], the Ki in assay [1] is under 0.05 µM; in assay [2], under 0.05 µM; in assay [3] it was under 0.05 µM; in assay [4], under 0.05 µM; in assay [5], 0.05 to 0.5 µM.

`CCn1ncc2c1-c1cnc(N)c(c1)O[C@H](C)c1cc(F)ccc1-n1nc(F)cc1C2` [Compound 71]: the Ki in assay [1], in assay [2], in assay [3], in assay [4] and in assay [5] was under 0.05 µM throughout.

Consider `Cc1nc2c(s1)Cc1cnn(C(F)F)c1-c1cnc(N)c(c1)O[C@H](C)c1cc(F)ccc1-2` [Compound 72], for which the Ki in assay [1] was under 0.05 µM; in assay [2], under 0.05 µM; in assay [3] it was under 0.05 µM; in assay [4], under 0.05 µM; in assay [5], 0.05 to 0.5 µM.

On to `CCn1nc(Cl)c2c1-c1cnc(N)c(c1)O[C@H](C)c1cc(F)ccc1-c1nn(C)cc1C2` [Compound 73], for which the Ki was under 0.05 µM in assay [1]; under 0.05 µM in assay [2]; under 0.05 µM in assay [3]; under 0.05 µM in assay [4]; 0.05 to 0.5 µM in assay [5].

Regarding `CCn1ncc2c1-c1cnc(N)c(c1)O[C@H](C)c1cc(F)ccc1-n1nc(Cl)cc1C2` [Compound 74], the Ki in assay [1], in assay [2], in assay [3], in assay [4] and in assay [5] was under 0.05 µM in each case.
